The results in this text go back to PubChem BioAssay AID1259407 (Chemical Carcinogenesis Research Information System (CCRIS), 2018).

The subject of the data set is CCRIS mutagenicity, Ames/micronucleus/aberration tests. In words: CCRIS mutagenicity studies.
Setting [1] is: Test System: AMES SALMONELLA TYPHIMURIUM, Strain/Indicator: TA98, Metabolic Activation: NONE, Method: PREINCUBATION
[2] abbreviates: Test System: AMES SALMONELLA TYPHIMURIUM, Strain/Indicator: TA100, Metabolic Activation: NONE, Method: PREINCUBATION
The mark [3] stands for this setting: Test System: AMES SALMONELLA TYPHIMURIUM, Strain/Indicator: TA100, Metabolic Activation: NONE, Method: STANDARD PLATE.

Active and inactive are the calls of the source. How the calls were made is not given here.

Take `O=[N+]([O-])c1ccc2c(c1)-c1ccccc1C2`: the mutagenic call is “inactive; negative” (End Point: IN VITRO CHROMOSOMAL ABERRATIONS, Test System: CHINESE HAMSTER LUNG (CHL) CELLS, Metabolic Activation: NONE); “active; positive” (End Point: IN VITRO CHROMOSOMAL ABERRATIONS, Test System: CHINESE HAMSTER LUNG (CHL) CELLS, Metabolic Activation: RAT, LIVER, S-9, KC-400); “active; positive” (Test System: AMES SALMONELLA TYPHIMURIUM, Strain/Indicator: TA98 (1,8-DNP6), Metabolic Activation: NONE, Method: PREINCUBATION); “active; positive” (Test System: AMES SALMONELLA TYPHIMURIUM, Strain/Indicator: TA98(NR), Metabolic Activation: NONE, Method: PREINCUBATION); “active; positive” (Test System: AMES SALMONELLA TYPHIMURIUM, Strain/Indicator: TA98(NR), Metabolic Activation: RAT LIVER S-9 (10%), Method: PREINCUBATION); “active; positive” (Test System: AMES SALMONELLA TYPHIMURIUM, Strain/Indicator: TA98 (NR), Metabolic Activation: RAT LIVER S-9, 3-METHYLCHOLANTHRENE (10%), Method: PREINCUBATION). Moreover, the mutagenic call is, setting by setting: (Test System: AMES SALMONELLA TYPHIMURIUM, Strain/Indicator: TA98(NR), Metabolic Activation: RAT LIVER S-9, BETA-NAPHTHAFLAVONE (10%), Method: PREINCUBATION) “active; positive”; (Test System: AMES SALMONELLA TYPHIMURIUM, Strain/Indicator: TA98(NR), Metabolic Activation: RAT LIVER S-9, PCB (10%), Method: PREINCUBATION) “active; positive”; (Test System: AMES SALMONELLA TYPHIMURIUM, Strain/Indicator: TA98(NR), Metabolic Activation: RAT LIVER S-9, PHENOBARBITAL (10%), Method: PREINCUBATION) “active; positive”; under setting [1], “active; positive”.
For `O[C@@H]1C=Cc2c(cc3ccc4cccc5ccc2c3c45)[C@@H]1O`, the mutagenic call (Test System: AMES SALMONELLA TYPHIMURIUM, Strain/Indicator: TA98, Metabolic Activation: RAT, LIVER, S-9, AROCLOR 1254, Method: STANDARD PLATE) is “active; positive”.
For `Nc1c(Cl)cc([N+](=O)[O-])cc1Cl`, the mutagenic call (Test System: AMES SALMONELLA TYPHIMURIUM, Strain/Indicator: TA98, Metabolic Activation: HAMSTER, LIVER, S-9, AROCLOR 1254 (30%), Method: PREINCUBATION) is “active; positive”; the mutagenic call under setting [1] was “active; positive”; the mutagenic call (Test System: AMES SALMONELLA TYPHIMURIUM, Strain/Indicator: TA98, Metabolic Activation: RAT, LIVER, S-9, AROCLOR 1254 (30%), Method: PREINCUBATION) was “active; positive”; the mutagenic call (Test System: AMES SALMONELLA TYPHIMURIUM, Strain/Indicator: TA100, Metabolic Activation: HAMSTER, LIVER, S-9, AROCLOR 1254 (30%), Method: PREINCUBATION) was “inactive; negative”; the mutagenic call under setting [2] is “inactive; negative”; the mutagenic call (Test System: AMES SALMONELLA TYPHIMURIUM, Strain/Indicator: TA100, Metabolic Activation: RAT, LIVER, S-9, AROCLOR 1254 (30%), Method: PREINCUBATION) was “inactive; negative”. Further, where the note is “Test System: AMES SALMONELLA TYPHIMURIUM, Strain/Indicator: TA100, Metabolic Activation: RAT, LIVER, S-9, KANECHLOR 500, Method: PREINCUBATION”, the mutagenic call is “inactive; negative”.
As for `CCCCCCCCC1CO1` (stereo unspecified), the mutagenic call was “inactive; negative” (Test System: AMES SALMONELLA TYPHIMURIUM, Strain/Indicator: TA97, Metabolic Activation: HAMSTER, LIVER, S-9, AROCLOR 1254 (10% & 30%), Method: PREINCUBATION); “inactive; negative” (Test System: AMES SALMONELLA TYPHIMURIUM, Strain/Indicator: TA97, Metabolic Activation: NONE, Method: PREINCUBATION); “inactive; negative” (Test System: AMES SALMONELLA TYPHIMURIUM, Strain/Indicator: TA97, Metabolic Activation: RAT, LIVER, S-9, AROCLOR 1254 (10% & 30%), Method: PREINCUBATION); “inactive; negative” (Test System: AMES SALMONELLA TYPHIMURIUM, Strain/Indicator: TA98, Metabolic Activation: HAMSTER, LIVER, S-9, AROCLOR 1254 (10% & 30%), Method: PREINCUBATION); “inactive; negative” under setting [1]; “inactive; negative” (Test System: AMES SALMONELLA TYPHIMURIUM, Strain/Indicator: TA98, Metabolic Activation: RAT, LIVER, S-9, AROCLOR 1254 (10% & 30%), Method: PREINCUBATION). Further, the mutagenic call by setting is: (Test System: AMES SALMONELLA TYPHIMURIUM, Strain/Indicator: TA100, Metabolic Activation: HAMSTER, LIVER, S-9, AROCLOR 1254 (10% & 30%), Method: PREINCUBATION) “inactive; negative”; under setting [2], “inactive; negative”; (Test System: AMES SALMONELLA TYPHIMURIUM, Strain/Indicator: TA100, Metabolic Activation: RAT, LIVER, S-9, AROCLOR 1254 (10% & 30%), Method: PREINCUBATION) “inactive; negative”; (Test System: AMES SALMONELLA TYPHIMURIUM, Strain/Indicator: TA1535, Metabolic Activation: HAMSTER, LIVER, S-9, AROCLOR 1254 (10% & 30%), Method: PREINCUBATION) “inactive; negative”; (Test System: AMES SALMONELLA TYPHIMURIUM, Strain/Indicator: TA1535, Metabolic Activation: NONE, Method: PREINCUBATION) “inactive; negative”; (Test System: AMES SALMONELLA TYPHIMURIUM, Strain/Indicator: TA1535, Metabolic Activation: RAT, LIVER, S-9, AROCLOR 1254 (10% & 30%), Method: PREINCUBATION) “inactive; negative”. The mutagenic call is, setting by setting: (Test System: AMES SALMONELLA TYPHIMURIUM, Strain/Indicator: TA1537, Metabolic Activation: HAMSTER, LIVER, S-9, AROCLOR 1254 (10% & 30%), Method: PREINCUBATION) “inactive; negative”; (Test System: AMES SALMONELLA TYPHIMURIUM, Strain/Indicator: TA1537, Metabolic Activation: NONE, Method: PREINCUBATION) “inactive; negative”; (Test System: AMES SALMONELLA TYPHIMURIUM, Strain/Indicator: TA1537, Metabolic Activation: RAT, LIVER, S-9, AROCLOR 1254 (10% & 30%), Method: PREINCUBATION) “inactive; negative”; (Test System: UDS RAT HEPATOCYTES, Strain/Indicator: THY INCORP, Metabolic Activation: NONE) “inactive; negative”.
For `COC(=O)c1cc(Oc2ccc(Cl)cc2Cl)ccc1[N+](=O)[O-]`, the mutagenic call was “inactive; negative” (Test System: AMES SALMONELLA TYPHIMURIUM, Strain/Indicator: YG1021, Metabolic Activation: NONE, Method: PREINCUBATION); “inactive; negative” (Test System: AMES SALMONELLA TYPHIMURIUM, Strain/Indicator: YG1021, Metabolic Activation: RAT, LIVER, S-9, PCB, Method: PREINCUBATION); “inactive; negative” (Test System: AMES SALMONELLA TYPHIMURIUM, Strain/Indicator: YG1026, Metabolic Activation: NONE, Method: PREINCUBATION); “active; positive” (Test System: AMES SALMONELLA TYPHIMURIUM, Strain/Indicator: YG1026, Metabolic Activation: RAT, LIVER, S-9, PCB, Method: PREINCUBATION).
As for `C=C(Br)C(C)=O`, the mutagenic call under setting [3] is “active; positive”.
On the same count and under the same terms, with `Cc1ccc2cc(C)c3c4c(ccc3c2c1)[C@H](O)[C@@H](O)[C@H]1O[C@@H]41` the entry was “active; positive”.
For `COc1cc2c(cc1O)CC1c3c(cc(OC)c(O)c3-2)CC[N+]1(C)C` (stereo unspecified), for the setting “Test System: AMES SALMONELLA TYPHIMURIUM, Strain/Indicator: TA100, Metabolic Activation: RAT, LIVER, S-9, PHENOBARBITAL AND BETA-NAPHTHOFLAVONE, Method: PREINCUBATION”, the mutagenic call is “inactive; negative”.
